Test results taken from US8889156B2, “Calcium-binding agents induce hair growth and/or nail growth” (priority 2009, dated 2014).
Square brackets hold non-standard residues; d marks the D form. Ends that are not written are not given here. pS = N[C@@H](COP(=O)(O)O)C(=O)O

Key:
[1] = HA binding assay (pulldown of fluorescein-labeled peptides, Langmuir isotherm fit); conditions: for Nmax (maximum monolayer surface concentration) / KA (binding affinity for HA): fit of Langmuir equation; for KA (binding affinity for HA): fluorescein-labeled peptide 0-100 μM, 0.3 mg HA nanocrystals
Experimental: Fluorescein-labeled DSS-containing peptides of various lengths were subjected to pulldown assays as follows: Samples containing varying concentrations of fluorescein-labeled peptide (0-100 μM) and a fixed amount (0.3 mg) of HA nanocrystals with a specific surface area of 100 m^2/g (Berkeley Advanced Biomaterials, Berkeley, Calif.) were prepared. Measurements were taken of the absorbance of the labeled peptide at 488 nm (the peak absorbance of the fluorescein label) before and after exposure to the HA. The amount of peptide bound was calculated by comparing the ratio of the final (Af) and initial (Ai) absorbances to the initial concentration (C0) [Cbound=(Af/Ai)C0]. Plots were generated of the amount of peptide bound per meter squared of HA surface area vs. concentration of unbound peptide at equilibrium. The resulting isotherms were fit to the Langmuir isotherm, x/m=(KANmaxCeq)/(1+KACeq), where x/m represents the molar amount of peptide bound per unit of HA surface area, KA is the affinity constant of the peptide for the HA surface (L/Mol), Nmax is the maximum surface concentration (mol/m^2), and Ceq is the molar concentration of unbound peptide at equilibrium (Calis et al. (1995) Pharm Res., 12: 1072-1076).
In order to quantitatively assess the strength of the DSS-HA interaction as well as to determine the roles of peptide length and sequence on binding, fluorescein-labeled, DSS-containing peptides of various lengths were subjected to pulldown assays as described in “Materials and Methods.”
The experimental data were fit to the Langmuir isotherm, which describes the binding of molecules to surfaces with the conditions that (1) all binding sites have the same affinity for the peptide and (2) the peptide will form a monolayer on the surface but cannot accumulate to higher levels (Atkins (1994) Physical chemistry. Freeman, New York). The excellent fit of the Langmuir isotherm to the experimental data validates these conditions, and the constants obtained from this analysis were used for comparisons between peptides. As shown in FIG. 7A and summarized in Table 6, both the binding affinity (KA) and the monolayer concentration (NMax) of the various peptides increased with the number of DSS repeats per peptide. Additionally, several variant peptides were tested (FIGS. 7B, 7C, Table 6): a peptide containing a longer side chain at the first position (4ESS (SEQ ID NO:34)), peptides containing a more sterically hindered hydroxyl group at the second and third positions (4DTT (SEQ ID NO:36), 4NTT (SEQ ID NO:38), 4ETT (SEQ ID NO:37)), peptides lacking a charged group at the first position (4NSS (SEQ ID NO:35), 8ASS (SEQ ID NO:26)), and peptides lacking hydroxyl groups at the second and third positions (DAA-8 (SEQ ID NO:40), 8NAA (SEQ ID NO:41)).

[2] = Binding of labeled peptides to carious lesions in teeth (CLSM); design: species or system human; conditions: labeled peptide, settings optimized per sample
From the text: Sections of human teeth containing obvious carious lesions, which consist of demineralized enamel, were polished and exposed to 5(6)-carboxyfluorescein-labeled DSS peptides and variants. The sections were washed extensively and imaged by CLSM using blue laser illumination (A=488 nm) and a FITC emission filter, with microscope and camera settings adjusted for each sample to optimize the signal detected from each peptide. The images were examined to identify the relative levels of peptide binding in healthy versus carious tissue. […] Given their ability to remineralize at sites of enamel degradation, they can also be used to initiate remineralization at sites of enamel degradation such as caries or injury sites without causing inappropriate nucleation on healthy tissue surfaces.

[3] = Tissue specific binding of labeled peptides to sections of human teeth (CLSM); conditions: 5(6)-carboxyfluorescein-labeled peptide, ten minutes; for level of binding (staining) to tooth surfaces: identical settings
From the text: In order to investigate the tissue specificity of DSS peptide binding to tooth tissue, sections of human teeth were exposed to DSS peptides and variants, then imaged by CLSM. The peptides utilized for these experiments were 8DSS (SEQ ID NO:33), 8ASS (SEQ ID NO:26), 8DAA (SEQ ID NO:40), 8NAA (SEQ ID NO:41), 4DSS (SEQ ID NO:31), 4ESS (SEQ ID NO:34), 4NSS (SEQ ID NO:35), 4DTT (SEQ ID NO:36), 4ETT (SEQ ID NO:37), 4NTT (SEQ ID NO:38), and 6DSS (SEQ ID NO:32). Sagittal sections of human teeth extracted during normal clinical practice were polished and then incubated for ten minutes in a solution of the appropriate 5(6) carboxyfluorescein-labeled peptide (12.5pM) containing 10 mM NaCl and 50 mM HEPES, pH 7.0. Control samples were prepared without peptide. Samples were washed extensively after treatment and imaged by CLSM using blue laser illumination (A=488 nm) and a FITC emission filter, with identical camera and microscope settings for each sample. For each section, multiple scans were collected and assembled in an automated mode to generate panels of images representing an area of 13×13 mm, sufficient in most cases to encompass the whole section. […] Significant binding was also seen to the edges of the pulp cavity.

| Substance | Nmax (maximum monolayer surface concentration) [1] | KA (binding affinity for HA) [1] | effect of sequence variation on binding affinity (KA) relative to DSS peptide of same size ([1]; in words) | surface binding density relative to unphosphorylated peptide ([1]; in words) | strength of staining of carious lesions [2] | specificity of binding to carious lesions versus healthy enamel [2] | level of binding (staining) to tooth surfaces [3] | effect of sequence variation on binding affinity (KA) relative to DSS peptide of same size ([1]; in words, listed as DAA8) | effect of sequence variation on binding affinity (KA) relative to DSS peptide of same size ([1]; in words, listed as DAA-8) | tissue pattern of binding in the tooth section [3] | HA binding activity ([1]; in words) |
| --- | --- | --- | --- | --- | --- | --- | --- | --- | --- | --- | --- |
| 4DS(P)S: phosphorylated DSS repeat peptide of the same size as 4DSS, SEQ ID NO:4 (D[pS]SD[pS]SD[pS]SD[pS]S) | 1.2 × 10^−7 ± 5 × 10^−9 mol/m^2 | 83,000 ± 9,000 M^−1 | did not lead to a significant change in binding affinity | large increase in the surface binding density |  |  |  |  |  |  |  |
| 4NAA: printed once with SEQ ID NO:44; not among the synthesized peptides, probably a misprint (NAANAANAANAA; synthetic calcium-binding peptide 4NAA) |  |  |  |  | exceptionally strong staining of carious lesions |  |  |  |  |  |  |
| 5DSS: peptide of five Asp-Ser-Ser repeats, SEQ ID NO:22 (DSSDSSDSSDSSDSS; synthetic calcium-binding peptide 5DSS, (DSS)-5) | 9.2 × 10^−8 ± 2 × 10^−9 mol/m^2 | 148,000 ± 14,000 M^−1 |  |  |  |  |  |  |  |  |  |
| ASS ASS ASS ASS ASS ASS ASS ASS (ASSASSASSASSASSASSASSASS; synthetic calcium-binding peptide 8ASS) |  |  | significant loss of binding affinity |  | exceptionally strong staining of carious lesions | highly specific binding to carious lesions | lower levels of binding |  |  |  |  |
| DAA DAA DAA DAA DAA DAA DAA DAA (DAADAADAADAADAADAADAADAA; synthetic calcium-binding peptide 8DAA) | 6.0 × 10^−8 ± 6 × 10^−9 mol/m^2 | 310,000 ± 74,000 M^−1 |  |  | exceptionally strong staining of carious lesions | highly specific binding to carious lesions |  | little observable effect | within experimental error of the KA for 8DSS | primary binding to the root tip dentin and cortical enamel |  |
| DSS DSS (DSSDSS; synthetic calcium-binding peptide 2DSS) | 2 × 10^−8 ± 5 × 10^−9 mol/m^2 | 57,000 ± 24,000 M^−1 |  |  |  |  |  |  |  |  |  |
| DSS DSS DSS DSS (DSSDSSDSSDSS; synthetic calcium-binding peptide 4DSS) | 5.8 × 10^−8 ± 6 × 10^−9 mol/m^2 | 94,000 ± 26,000 M^−1 |  |  | exceptionally strong staining of carious lesions | highly specific binding to carious lesions |  |  |  | bound primarily to the mantle dentin |  |
| DTT DTT DTT DTT (DTTDTTDTTDTT; synthetic calcium-binding peptide 4DTT) | 1.3 × 10^−8 ± 1 × 10^−9 mol/m^2 | 161,000 ± 79,000 M^−1 | little observable effect |  |  |  | sharply reduced levels |  |  | binding patterns similar to those of 4DSS |  |
| NTT NTT NTT NTT (NTTNTTNTTNTT; synthetic calcium-binding peptide 4NTT) | 5.8 × 10^−8 ± 2 × 10^−8 mol/m^2 | 17,000 ± 7,000 M^−1 | significant loss of binding affinity |  |  |  | very low levels of binding to the healthy tooth tissue |  |  | strong binding to a fragment of periodontal bone | near-total loss of binding activity |
